Measured values reported in ChEMBL document CHEMBL2151037, “Synthesis of novel 1H-1,2,3-triazole tethered C-5 substituted uracil-isatin conjugates and their cytotoxic evaluation” (Eur J Med Chem, 2012).

Assays:
Format in all cases: functional, cell-based
DU-145 = experiment: Antiproliferative activity against human DU145 cells after 24 hrs by MTT assay; settings: DU-145, 24 h
HeLa = experiment: Antiproliferative activity against human HeLa cells after 24 hrs by MTT assay
MCF7 = experiment: Antiproliferative activity against human MCF7 cells after 24 hrs by MTT assay; settings: MCF7, 24 h

IC50 (DU-145) | IC50 (HeLa) | IC50 (MCF7) | Compound
28.6 µM | > 100 µM | > 100 µM | O=C1C(=O)N(CCn2cc(Cn3cc(F)c(=O)n(Cc4cn(CCN5C(=O)C(=O)c6ccccc65)nn4)c3=O)nn2)c2ccccc21
63.7 µM | > 100 µM | > 100 µM | Cc1ccc2c(c1)C(=O)C(=O)N2CCCn1cc(Cn2ccc(=O)n(Cc3cn(CCCN4C(=O)C(=O)c5cc(C)ccc54)nn3)c2=O)nn1
> 100 µM | > 100 µM | 43.1 µM | O=C1C(=O)N(CCn2cc(Cn3ccc(=O)n(Cc4cn(CCN5C(=O)C(=O)c6cc(F)ccc65)nn4)c3=O)nn2)c2ccc(F)cc21
> 100 µM | 50.7 µM | 56.4 µM | O=C1C(=O)N(CCCn2cc(Cn3ccc(=O)n(Cc4cn(CCCN5C(=O)C(=O)c6ccccc65)nn4)c3=O)nn2)c2ccccc21
38.2 µM | 52.6 µM | 51.1 µM | Cc1ccc2c(c1)C(=O)C(=O)N2CCn1cc(Cn2ccc(=O)n(Cc3cn(CCN4C(=O)C(=O)c5cc(C)ccc54)nn3)c2=O)nn1
66.2 µM | 52.4 µM | 98.7 µM | O=C1C(=O)N(CCCn2cc(Cn3ccc(=O)n(Cc4cn(CCCN5C(=O)C(=O)c6cc(F)ccc65)nn4)c3=O)nn2)c2ccc(F)cc21
42.8 µM | > 100 µM | > 100 µM | O=C1C(=O)N(CCn2cc(Cn3ccc(=O)n(Cc4cn(CCN5C(=O)C(=O)c6cc(Cl)ccc65)nn4)c3=O)nn2)c2ccc(Cl)cc21
> 100 µM | > 100 µM | 63.3 µM | O=C1C(=O)N(CCn2cc(Cn3cc(F)c(=O)n(Cc4cn(CCN5C(=O)C(=O)c6cc(Cl)ccc65)nn4)c3=O)nn2)c2ccc(Cl)cc21
> 100 µM | 65.7 µM | 38.2 µM | O=C1C(=O)N(CCn2cc(Cn3cc(Cl)c(=O)n(Cc4cn(CCN5C(=O)C(=O)c6cc(Cl)ccc65)nn4)c3=O)nn2)c2ccc(Cl)cc21
57.8 µM | > 100 µM | 45.5 µM | O=C1C(=O)N(CCn2cc(Cn3ccc(=O)n(Cc4cn(CCN5C(=O)C(=O)c6ccccc65)nn4)c3=O)nn2)c2ccccc21
13.9 µM | 33.1 µM | > 100 µM | O=C1C(=O)N(CCCn2cc(Cn3ccc(=O)n(Cc4cn(CCCN5C(=O)C(=O)c6cc(Cl)ccc65)nn4)c3=O)nn2)c2ccc(Cl)cc21
18.2 µM | > 100 µM | > 100 µM | O=C1C(=O)N(CCn2cc(Cn3cc(Cl)c(=O)n(Cc4cn(CCN5C(=O)C(=O)c6ccccc65)nn4)c3=O)nn2)c2ccccc21
